According to publication PMC6479714, “Multiplex Analysis Platform for Endocrine Disruption Prediction Using Zebrafish” (International Journal of Molecular Sciences, 2019):
“And” between values parts separate entries of the source, which are not always exact repeats. Equal entries are not always repeated. Where two headings read alike, the source gives them in different places.

Assays:
[1] = system: cytosolic sulfotransferase 2 family 2 (sult2st3); assay: sult2st3 gene expression (qPCR) in exposed zebrafish embryos; format: in vivo, zebrafish (Danio rerio); conditions: for maximum FI / maximum average overexpression level above controls, sult2st3: exposed 48–120 hpf, times above controls; for EC50: read-out: EC50 sult2st3
[2] = system: brain aromatase (cyp19a1b); assay: cyp19a1b gene expression (qPCR) in exposed zebrafish embryos; format: in vivo, zebrafish (Danio rerio); conditions: for LogEC50 (cyp19a1b mRNA): log of EC50 in μM, 48-120 h, our study; for EC50: zebrafish embryos exposed 48–120 hpf, mRNA by qPCR
vtg - blood [3] = conditions: cited from earlier work
zebrafish embryos = assay: acute toxicity test from 48–120 hpf based on the OECD FET test; format: in vivo, zebrafish (Danio rerio); conditions: zebrafish embryos exposed 48–120 hpf; for LC50, class symbol: highest concentration set by water solubility
Excerpt: (§1) Twenty embryos per treatment were exposed to 5 concentrations of compound of interest in a 10× dilution factor from 48–120 hpf, which is the experimental time in which EDCs will be screened posteriorly. Embryos were exposed from 48–120 hpf rather than 0–96 hpf or 0–120 hpf to avoid unspecific toxicity outside of the EDC testing period, which have been chosen on the basis that endocrine pathways, e.g., thyroid metabolism, are not fully functional until 40–55 hpf in zebrafish embryos. Stock solutions of chemicals to be tested were freshly prepared in exposure medium. The highest concentration for each compound was selected according to its water solubility (Table S1). Exposures were performed in glass vessels to assure maximum bioavailability for hydrophobic compounds, and medium was not exchanged during the experiment.

[4] = target: iodothyronine deiodinase 2 (dio2); assay: dio2 gene expression (qPCR) in exposed zebrafish embryos; format: in vivo, zebrafish (Danio rerio); conditions: for EC50: read-out: EC50 dio2
cyp19a1b - fluorescence = conditions: 0-96 h, cited from earlier work; for LogEC50 (cyp19a1b - fluorescence): log of EC50 in μM
vitellogenin 1 (vtg1) = assay: vtg1 gene expression (qPCR) in exposed zebrafish embryos; conditions: for EC50: read-out: EC50 vtg1
[5] = listed physicochemical property, source not given; cited from earlier work
cyp19a1b - mRNA [6] = conditions: cited from earlier work; for LogEC50 (cyp19a1b - mRNA): log of EC50 in μM
[7] = system: cytochrome P450 2k22 (cyp2k22); assay: cyp2k22 gene expression (qPCR) in exposed zebrafish embryos; conditions: for EC50: read-out: EC50 cyp2k22
[8] = acute toxicity test from 48–120 hpf based on the OECD FET test; format: in vivo, zebrafish (Danio rerio); conditions: in vivo; zebrafish embryos exposed 48–120 hpf
Excerpt: as §1

vtg - blood [9] = conditions: cited from earlier work; for LogEC50 (vtg - blood): log of EC50 in μM
cyp19a1b - mRNA [10] = conditions: 14 days (adults), cited from earlier work
ERE-GFP - fluorescence = conditions: 0-120 h, cited from earlier work
vtg1 - mRNA = conditions: 0-168 h; ref [10] (supplement list: Chen 2018); cited from earlier work
vtg - mRNA = conditions: 14 days (juveniles), cited from earlier work
cyp19a1b - vtg1 mRNA = assay: estrogenic markers considered together (cyp19a1b - vtg1 mRNA), zebrafish embryos
transthyretin (ttr) = assay: ttr gene expression (qPCR) in exposed zebrafish embryos; format: in vivo, zebrafish (Danio rerio); conditions: exposed 48–120 hpf
thyroid receptor α (trα) = assay: trα gene expression (qPCR) in exposed zebrafish embryos; format: in vivo, zebrafish (Danio rerio); conditions: exposed 48–120 hpf
tpo - mRNA = conditions: 48-120 h, ref [32] (supplement list), cited from earlier work
thyroid peroxidase (tpo) = assay: tpo gene expression (qPCR) in exposed zebrafish embryos; format: in vivo, zebrafish (Danio rerio); conditions: for EC50: Danio rerio, read-out: EC50 tpo
sult2st3 - cyp2k22 mRNA [11] = conditions: 96-120 h, ref [31] (supplement list), cited from earlier work
sult2st3 - cyp2k22 mRNA [12] = assay: androgenic markers considered together (sult2st3 - cyp2k22 mRNA), zebrafish embryos
[13] = zebrafish embryos exposed 48–120 hpf, mRNA by qPCR
[14] = ref [3] (supplement list: Brion 2012)
[15] = log of EC50 in μM, 48-120 h, our study
[16] = * mean of an approximate range, ref [21] (supplement list: Molina 2018)
[17] = log of EC50 in μM, ref [21] (supplement list)
[18] = FUL 1 µM co-exposed with E2 1 µM
[19] = NIL 1 µM co-exposed with TES 1 µM, reaching control levels

## C[C@]12CCC(=O)C=C1CC[C@@H]1[C@@H]2CC[C@@]2(C)[C@H]1CC[C@]2(C)O [17α-MT, 17α-methyltestosterone]
[1]
  maximum FI / maximum average overexpression level above controls, sult2st3: 4.64–8.97
[1]; [13]
  EC50: 100 nM
[2]
  LogEC50 (cyp19a1b mRNA): -0.2076
  EC50: 620 nM
Vtg - blood [3]; 12 days (adults), ref [30] (supplement list: Ankley 2001), read-out: EC50 (vtg - blood)
  EC50: 660 nM
Vtg - blood [3]; 21 days (adults), * mean of an approximate range, ref [29] (supplement list: Pawlowski 2004), read-out: EC50 (vtg1 - blood)
  EC50: ~2 nM
Vtg - blood [3]; log of EC50 in μM, 12 days (adults), ref [30] (supplement list)
  LogEC50 (vtg - blood): -0.1805
Vtg - blood [3]; log of EC50 in μM, 21 days (adults), ref [29] (supplement list)
  LogEC50 (vtg1 - blood): -2.699
Zebrafish embryos
  LC50: 90.2 µM
[4]; [13]
  EC50: 90 nM
cyp19a1b - fluorescence; [14]
  EC50: 40 nM
cyp19a1b - fluorescence; ref [3] (supplement list)
  LogEC50 (cyp19a1b - fluorescence): -1.398
Vitellogenin 1 (vtg1); [15]
  LogEC50 (vtg1 mRNA): 0.301
Vitellogenin 1 (vtg1); zebrafish embryos exposed 48–120 hpf, mRNA by qPCR (END: downregulation)
  EC50: 2000 nM
[5]
  Water solubility: 33.90 mg/L
cyp19a1b - mRNA [6]; 0-144h, * mean of an approximate range, ref [28] (supplement list: Trant 2001)
  EC50: ~170 nM
cyp19a1b - mRNA [6]; 0-144h, ref [28] (supplement list)
  LogEC50 (cyp19a1b - mRNA): -0.7696
[7]; [13]
  EC50: 50 nM

## CC(C)(c1ccc(O)cc1)c1ccc(O)cc1 [BPA, bisphenol A]
[2]; Danio rerio
  EC50: 4990 nM
[2]
  LogEC50 (cyp19a1b mRNA): 0.6981
Vtg - blood [3]; 43 days (adults), * mean of an approximate range, ref [22] (supplement list: Sohoni 2001), read-out: EC50 (vtg - blood)
  EC50: ~1750 nM
Vtg - blood [3]; log of EC50 in μM, 43 days (adults), ref [22] (supplement list)
  LogEC50 (vtg - blood): 0.243
[8]
  LC50: 41.6 µM
cyp19a1b - fluorescence; * mean of an approximate range, ref [18] (supplement list: Le Fol 2017)
  EC50: ~6250 nM
cyp19a1b - fluorescence; ref [2] (supplement list: Petersen 2013)
  EC50: 7400 nM
cyp19a1b - fluorescence; [14]
  EC50: 3300 nM
cyp19a1b - fluorescence; ref [2] (supplement list)
  LogEC50 (cyp19a1b - fluorescence): 0.8692
cyp19a1b - fluorescence; ref [3] (supplement list)
  LogEC50 (cyp19a1b - fluorescence): 0.5185
cyp19a1b - fluorescence; ref [18] (supplement list)
  LogEC50 (cyp19a1b - fluorescence): 0.7959
Vtg - blood [9]; 14 days (adults), ref [14] (supplement list: Brian 2005)
  EC50: 650 nM
Vtg - blood [9]; 28 days (juveniles), * mean of an approximate range, ref [13] (supplement list: Van den Belt 2004)
  EC50: ~2630 nM
Vtg - blood [9]; 14 days (adults), ref [14] (supplement list)
  LogEC50 (vtg - blood): -0.1871
Vtg - blood [9]; ref [13] (supplement list)
  LogEC50 (vtg - blood): 0.42
Vitellogenin 1 (vtg1); 48-120 h, our study
  EC50 (vtg1 - mRNA), class symbol: n.e.
Vitellogenin 1 (vtg1); exposed 48–120 hpf
  effect on expression of vtg1: did not affect
cyp19a1b - mRNA [10]; [16]
  EC50: ~24 nM
cyp19a1b - mRNA [10]; [17]
  LogEC50 (cyp19a1b - mRNA): -1.62
ERE-GFP - fluorescence; ref [19] (supplement list: Green 2016)
  EC50: 1230 nM
ERE-GFP - fluorescence; log of EC50 in μM, ref [19] (supplement list)
  LogEC50 (ERE-GFP - fluorescence): 0.08991
vtg1 - mRNA
  EC50 (vtg1 - mRNA), class symbol: n.e.
Vtg - mRNA; [16]
  EC50: ~240 nM
Vtg - mRNA; [17]
  LogEC50 (vtg - mRNA): -0.6198
cyp19a1b - mRNA [6]; 0-72 h, ref [20] (supplement list: Saeed 2016)
  EC50: 220 nM
cyp19a1b - mRNA [6]; 72-96 h, * mean of an approximate range, ref [5] (supplement list: Chung 2011)
  EC50: ~3000 nM
cyp19a1b - mRNA [6]; 0-72 h, ref [20] (supplement list)
  LogEC50 (cyp19a1b - mRNA): -0.6576
cyp19a1b - mRNA [6]; 72-96 h, ref [5] (supplement list)
  LogEC50 (cyp19a1b - mRNA): 0.4771

## CC/C(=C(/CC)c1ccc(O)cc1)c1ccc(O)cc1 [DES, diethylstilbestrol]
[2]; Danio rerio
  EC50: 10 nM
[2]
  LogEC50 (cyp19a1b mRNA): -2
Zebrafish embryos
  LC50, class symbol: -
cyp19a1b - fluorescence; [14]
  EC50: 0.01 nM
cyp19a1b - fluorescence; ref [3] (supplement list)
  LogEC50 (cyp19a1b - fluorescence): -5
cyp19a1b - mRNA [6]; 2-48 h, * mean of an approximate range, ref [6] (supplement list: Kishida 2001)
  EC50: ~5.5 nM
cyp19a1b - mRNA [6]; 2-48 h, ref [6] (supplement list)
  LogEC50 (cyp19a1b - mRNA): -2.26

## C[C@]12CC[C@@H]3c4ccc(O)cc4C[C@@H](CCCCCCCCC[S+]([O-])CCCC(F)(F)C(F)(F)F)[C@H]3[C@@H]1CC[C@@H]2O (stereo partly shown) [FUL, fulvestrant]
cyp19a1b - vtg1 mRNA; FUL 10 µM co-exposed with E2
  rescue effects at 10 µM antagonist: no more rescue effects than those observed at 1 µM
[2]; [18]
  FI cyp19a1b after co-exposure with antagonist: 57.17
Zebrafish embryos
  LC50, class symbol: -
Vitellogenin 1 (vtg1); [18]
  FI vtg1 after co-exposure with antagonist: 205.50
  rescue effect: decrease of vtg1 compared to single exposure of E2: 47.89%

## Cn1cc[nH]c1=S [MMI, methimazole]
Transthyretin (ttr)
  effect on ttr expression: None of the other three remaining thyroid markers analyzed were affected
[4]; exposed 48–120 hpf
  effect on dio2 expression: None of the other three remaining thyroid markers analyzed were affected
Thyroid receptor α (trα)
  effect on trα expression: None of the other three remaining thyroid markers analyzed were affected
Tpo - mRNA; main text refs 25, 29
  EC50: 487 µM
Tpo - mRNA; log of EC50 in μM
  LogEC50 (tpo - mRNA): 2.688
[5]
  Water solubility: 277500.00 mg/L
Thyroid peroxidase (tpo); [13]
  EC50: 397 µM
Thyroid peroxidase (tpo); [15]
  LogEC50 (tpo - mRNA): 2.599

## C[C@]12CC[C@H]3[C@@H](CCC4=CC(=O)CC[C@@H]43)[C@@H]1CC[C@@H]2O [NAN, nandrolone]
[1]; Danio rerio
  EC50: 130 nM
[1]
  maximum FI / maximum average overexpression level above controls, sult2st3: 4.64–8.97
[2]; Danio rerio
  EC50: 200 nM
[8]
  LC50: 497 µM
[4]; Danio rerio
  EC50: 80 nM
Vitellogenin 1 (vtg1); Danio rerio
  EC50: 1720 nM
[7]; Danio rerio
  EC50: 110 nM

## CC1(C)NC(=O)N(c2ccc([N+](=O)[O-])c(C(F)(F)F)c2)C1=O [NIL, nilutamide]
[1]; [19]
  rescue of TES-induced sult2st3 overexpression: totally rescued
[8]
  LC50: 32.9 µM
[5]
  Water solubility: 4.19 mg/L
[7]; [19]
  rescue of TES-induced cyp2k22 overexpression: totally rescued

## C[C@]12CC[C@H]3[C@@H](CCC4=CC(=O)CC[C@@]43C)[C@@H]1CC[C@@H]2O [TES, testosterone]
sult2st3 - cyp2k22 mRNA [11]; log of EC50 in μM
  LogEC50 (sult2st3 - cyp2k22 mRNA): -1.222
sult2st3 - cyp2k22 mRNA [11]; read-out: EC50 (sult2st3 - cyp2k22 mRNA)
  EC50: 60 nM
cyp19a1b - vtg1 mRNA; Danio rerio, read-out: EC50 (cyp19a1b - vtg1 mRNA)
  EC50: 1110 nM
cyp19a1b - vtg1 mRNA; [15]
  LogEC50 (cyp19a1b - vtg1 mRNA): 0.04532
[1]; Danio rerio
  EC50: 140 nM
[1]
  maximum FI / maximum average overexpression level above controls, sult2st3: 7.33 and 4.64–8.97
cyp19a1b - fluorescence; [14]
  EC50: 1030 nM
cyp19a1b - fluorescence; ref [3] (supplement list)
  LogEC50 (cyp19a1b - fluorescence): 0.01284
Vitellogenin 1 (vtg1); Danio rerio
  EC50: 1460 nM
sult2st3 - cyp2k22 mRNA [12]; Danio rerio, read-out: EC50 (sult2st3 - cyp2k22 mRNA)
  EC50: 440 nM
sult2st3 - cyp2k22 mRNA [12]; [15]
  LogEC50 (sult2st3 - cyp2k22 mRNA): -0.3565
cyp19a1b - mRNA [6]; 0-72 h, * mean of an approximate range, ref [27] (supplement list: Mouriec 2009)
  EC50: ~1000 nM
cyp19a1b - mRNA [6]; 0-72 h, ref [27] (supplement list)
  LogEC50 (cyp19a1b - mRNA): 0
Thyroid peroxidase (tpo)
  EC50: 0.02 µM
[7]; Danio rerio
  EC50: 740 nM
[7]; exposed 48–120 hpf, times above controls
  maximum average overexpression level above controls, cyp2k22: 4.01

## C=CC1(C)OC(=O)N(c2cc(Cl)cc(Cl)c2)C1=O (stereo not shown) [VIN, vinclozolin]
Zebrafish embryos
  LC50, class symbol: -
